From US20180353501A1 (Arvinas, Inc., priority 2017, published 2018)

Molecular target: T1, VHL (GST-VBC) (Homo sapiens, UniProt P40337)
T1 construct: made in house; host or cells: E. coli BL21(DE3)
Experiment: SPR binary affinity, PROTAC on immobilized GST-VBC
Format: binding
Experimental: FIGS. 16A, 16B, and 16C. SPR curves assessing binary and ternary interactions. […] (C) SPR kinetic evaluation of p38δ:compound 46:VHL and p38δ:compound 50:VHL ternary complex interactions. Equimolar p38δ:PROTAC mixtures were injected onto immobilized GST-VBC and allowed to dissociate overtime. […] See Table 12 for a summary of the binary and ternary affinity and kinetic measurements.
Next, with the same setup, equimolar p38δ:PROTAC dilutions were successively injected onto immobilized VHL for 60 seconds, prior to monitoring complex dissociation for the remaining 300 seconds. […]
For the expression of GST-tagged VHL:Elongin B:Elongin C (herein referred to as GST-VHL), wild-type human VHL, Elongin B, and Elongin C were co-expressed in E. coli. […] Eluted protein was assessed for identity and purity via coomassie staining of sample run on an SDS-PAGE gel and pure elutions were pooled, concentrated, and diluted in ion-exchange buffer A (30 mM Tris pH 8.0, 5% glycerol, 1 mM DTT) until the salt concentration was 50 mM, before loading onto a Mono Q 5/50 GL column (GE Life Sciences). […] Fractions were then assessed for purity via coomassie, pooled, concentrated, and run on a Superdex-200 column (GE Life Sciences) using size-exclusion buffer (30 mM Tris pH 8.0, 100 mM NaCl, 10% glycerol, 1 mM DTT). […]

T1 sequence (P40337 whole entry): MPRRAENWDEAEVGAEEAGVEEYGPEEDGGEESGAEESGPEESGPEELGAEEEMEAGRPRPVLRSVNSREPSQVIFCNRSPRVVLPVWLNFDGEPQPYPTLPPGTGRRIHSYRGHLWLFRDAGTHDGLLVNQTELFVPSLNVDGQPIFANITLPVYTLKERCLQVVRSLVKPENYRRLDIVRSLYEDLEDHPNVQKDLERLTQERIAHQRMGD
T1 sequence (Q15370 whole entry partner): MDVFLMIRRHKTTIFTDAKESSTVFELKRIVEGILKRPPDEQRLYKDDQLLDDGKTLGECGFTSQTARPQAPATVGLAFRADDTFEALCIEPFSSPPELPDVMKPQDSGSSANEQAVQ
T1 sequence (Q15369 whole entry partner): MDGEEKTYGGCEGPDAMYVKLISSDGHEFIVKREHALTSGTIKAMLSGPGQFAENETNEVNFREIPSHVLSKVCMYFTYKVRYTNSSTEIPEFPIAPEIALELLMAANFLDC

SMILES | Kd
COc1cc2c(Oc3ccc(NC(=O)C4(C(=O)Nc5ccc(F)cc5)CC4)cc3F)ccnc2cc1OCCOCCOCCOc1cc(-c2scnc2C)ccc1CNC(=O)[C@@H]1C[C@@H](O)CN1C(=O)[C@H](C(C)C)N1Cc2ccccc2C1=O [compound 46] | 3.5 µM
COc1cc2c(Oc3ccc(NC(=O)C4(C(=O)Nc5ccc(F)cc5)CC4)cc3F)ccnc2cc1OCCCCOCCCCOCC(=O)N[C@H](C(=O)N1C[C@H](O)C[C@H]1C(=O)NCc1ccc(-c2scnc2C)cc1)C(C)(C)C [compound 50, N-(3-fluoro-4-((7-(4-(4-(2-(((S)-1-((2S,4R)-4-hydroxy-2-((4-(4-methylthiazol-5-yl)benzyl)carbamoyl)pyrrolidin-1-yl)-3,3-dimethyl-1-oxobutan-2-yl)amino)-2-oxoethoxy)butoxy)buto-xy)-6-methoxyquinolin-4-yl)oxy)phenyl)-N-(4-fluorophenyl)cyclopropane-1,1-dicarboxa-mide] | 5 µM
